Data from patent US9422293B2 (priority 2006, dated 2016).
Counter-ions that a name gives are not always drawn.

Biological target: rat TRPV1 (Rattus norvegicus (Rat), UniProt O35433)
Conditions: read-out: Rat IC50

rat TRPV1, sequence (O35433 whole entry): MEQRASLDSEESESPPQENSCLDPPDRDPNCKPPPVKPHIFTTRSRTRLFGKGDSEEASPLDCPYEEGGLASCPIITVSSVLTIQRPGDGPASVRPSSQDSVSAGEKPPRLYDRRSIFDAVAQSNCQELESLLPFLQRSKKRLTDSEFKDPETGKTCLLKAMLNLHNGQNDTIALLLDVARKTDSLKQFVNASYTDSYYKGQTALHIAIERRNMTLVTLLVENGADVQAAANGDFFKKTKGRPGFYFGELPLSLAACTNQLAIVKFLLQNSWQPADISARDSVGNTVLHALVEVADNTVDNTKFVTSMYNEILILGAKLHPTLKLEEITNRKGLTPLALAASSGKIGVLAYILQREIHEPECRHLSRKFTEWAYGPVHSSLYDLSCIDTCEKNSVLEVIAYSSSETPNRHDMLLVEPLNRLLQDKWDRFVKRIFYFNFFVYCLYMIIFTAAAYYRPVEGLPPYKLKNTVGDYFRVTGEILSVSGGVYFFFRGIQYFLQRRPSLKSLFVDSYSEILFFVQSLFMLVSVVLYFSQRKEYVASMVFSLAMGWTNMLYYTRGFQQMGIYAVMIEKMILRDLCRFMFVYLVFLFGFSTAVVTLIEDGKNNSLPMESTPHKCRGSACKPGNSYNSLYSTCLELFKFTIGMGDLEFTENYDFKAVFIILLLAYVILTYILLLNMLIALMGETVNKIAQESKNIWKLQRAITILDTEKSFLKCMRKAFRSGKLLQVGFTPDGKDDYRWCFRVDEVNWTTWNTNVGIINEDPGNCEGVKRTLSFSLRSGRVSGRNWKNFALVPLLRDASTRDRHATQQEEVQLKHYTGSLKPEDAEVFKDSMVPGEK

| Structure (SMILES) | IC50 |
| --- | --- |
| FC(F)(F)c1ccc(Nc2nc(Oc3ccccc3)nc3c2CCN(c2ncccc2C(F)(F)F)CC3)cc1 [Example 342, 2-(Phenyloxy)-N-[4-(trifluoromethyl)phenyl]-7-[3-(trifluoromethyl)pyridin-2-yl]-6,7,8,9-tetrahydro-5H-pyrimido[4,5-d]azepin-4-amine trifluoroacetic acid salt] | 0.06 µM |
| Cc1cc(C(F)(F)F)ccc1Nc1nc(SC2CCOC2C)nc2c1CCN(c1ncccc1C(F)(F)F)CC2 (stereo not drawn) [Example 369, 2,5-Anhydro-1,4-dideoxy-3-S-(4-{[2-methyl-4-(trifluoromethyl)phenyl]amino}-7-[3-(trifluoromethyl)pyridin-2-yl]-6,7,8,9-tetrahydro-5H-pyrimido[4,5-d]azepin-2-yl)-3-thiopentitol] | 0.01 µM |
| CC(=O)c1ccc(Nc2nc(N3CCCCC3)nc3c2CCN(c2ncccc2C(F)(F)F)CC3)cc1 [Example 156, 1-[4-({2-Piperidin-1-yl-7-[3-(trifluoromethyl)pyridin-2-yl]-6,7,8,9-tetrahydro-5H-pyrimido[4,5-d]azepin-4-yl}amino)phenyl]ethanone] | 0.59 µM |
| FC(F)(F)c1ccc(Nc2nc(N3CCNCC3)nc3c2CCN(c2ncccc2C(F)(F)F)CC3)cc1 [Example 99B, [2-Piperazin-1-yl-7-(3-trifluoromethyl-pyridin-2-yl)-6,7,8,9-tetrahydro-5H-pyrimido[4,5-d]azepin-4-yl]-(4-trifluoromethyl-phenyl)-amine trifluoroacetic acid salt] | 7.2 µM |
| FC(F)(F)c1ccc(Nc2nc(N3CCCC3)nc3c2CCN(c2ncccc2C(F)(F)F)CC3)cc1 [Example 106, [2-Pyrrolidin-1-yl-7-(3-trifluoromethyl-pyridin-2-yl)-6,7,8,9-tetrahydro-5H-pyrimido[4,5-d]azepin-4-yl]-(4-trifluoromethyl-phenyl)-amine] | 0.062 µM |
| Cc1cc(C(F)(F)F)ccc1Nc1nc(N(C)C2CCCCC2)nc2c1CCN(c1ncccc1C(F)(F)F)CC2 [Example 267, N^2-Cyclohexyl-N^2-methyl-N^4-[2-methyl-4-(trifluoromethyl)phenyl]-7-[3-(trifluoromethyl)pyridin-2-yl]-6,7,8,9-tetrahydro-5H-pyrimido[4,5-d]azepine-2,4-diamine] | 1.87 µM |
| CN(C)c1nc2c(c(Nc3ccc([N+](=O)[O-])cc3)n1)CCN(c1ncccc1C(F)(F)F)CC2 [Example 72B, N^2,N^2-Dimethyl-N^4-(4-nitro-phenyl)-7-(3-trifluoromethyl-pyridin-2-yl)-6,7,8,9-tetrahydro-5H-pyrimido[4,5-d]azepine-2,4-diamine trifluoroacetic acid salt] | 0.18 µM |
| CC(Oc1nc2c(c(Nc3ccc(S(=O)(=O)N4CCCC4)cc3)n1)CCN(c1ncccc1C(F)(F)F)CC2)C1CCCCC1 (stereo not drawn) [Example 320, 2-[(1-Cyclohexylethyl)oxy]l-N-[4-(pyrrolidin-1-ylsulfonyl)phenyl]-7-[3-(trifluoromethyl)pyridin-2-yl]-6,7,8,9-tetrahydro-5H-pyrimido[4,5-d]azepin-4-amine] | 0.02 µM |
| Cc1cc(C(F)(F)F)ccc1Nc1nc(OC(C)C2CC2)nc2c1CCN(c1ncccc1C(F)(F)F)CC2 (stereo not shown) [Example 325, 2-[(1-Cyclopropylethyl)oxy]-N-[2-methyl-4-(trifluoromethyl)phenyl]-7-[3-(trifluoromethyl)pyridin-2-yl]-6,7,8,9-tetrahydro-5H-pyrimido[4,5-d]azepin-4-amine] | 0.3 µM |
| CN(C)c1nc2c(c(NCc3ccc(C(F)(F)F)nc3)n1)CCN(c1ncccc1C(F)(F)F)CC2 [Example 218, N^2,N^2-Dimethyl-7-[3-(trifluoromethyl)pyridin-2-yl]-N^4-{[6-(trifluoromethyl)pyridin-3-yl]methyl}-6,7,8,9-tetrahydro-5H-pyrimido[4,5-d]azepine-2,4-diamine trifluoroacetic acid salt] | 0.12 µM |
